Source: patent US7163941B2, “Pyrido[2,3-d]pyrimidin-7-carboxylic acid derivatives, their manufacture and use as pharmaceutical agents” (Hoffmann-La Roche Inc., priority 2003, dated 2007)
pIC50: −log10 of the molar value.

Columns and labels:
[1] = target: T1, Src (p60^c-src, partially purified) (Homo sapiens, UniProt P12931); assay: SRC-Inhibitor-Assay (time-resolved fluorescence), Src enzyme; assay type: biochemical; conditions: ATP 5 μM, peptide 10 μM, enzyme 2.5 U/ml, pre-incubation 15 min at 15° C.
T1 construct: purchased Upstate (UBI)
Description: (§1) The activity of the compounds according to this invention as inhibitors for the src-family tyrosine kinases was shown by using the following assay.
(§2) SRC-Inhibitor-Assay Parameters:
(§3) • Reaction mixture: • ATP 5 μM • Peptide (R+Ja133-Ro): 10 μM • Ja133-Ro 196 nM • Ro 9.8 μM • PT66 230 ng/ml • Assay buffer: 4 mM MgCl2 • 2 mM TCEP • 50 mM HEPES • 0,1% Tween 20 • pH 7.3 • Enzyme: 2.5 U/ml • Inhibitor: max. 25 μM • min. 0.42 nM Material: • Eu-labelled phosphotyrosine antibody: -for Lck Cisbio Mab PT66-K, • for Src EG&G Wallac PT66 Eu-W1024 (all commercially available). • Peptides: Ro: NH2-A-E-E-E-I-Y-G-E-F-E-A-K-K-K-K-CONH2 (SEQ ID NO: 1), and • Ja133-Ro: Ja133-G-Aminocaprylic acid-A-E-E-E-I-Y-G-E-F-E-A-K-K-K-K-CONH2 (SEQ ID NO: 2), wherein Ja133 is LightCycler-Red 640-N-hydroxy succinimide ester; • whereby both peptides were synthesized by an optimized solid phase peptide synthesis protocol (Merrifield, Fed. Proc. Fed. Amer. Soc. Exp. Biol. 21 (1962) 412) on a Zinsser SMP350 peptide synthesizer. Shortly, the peptide was assembled on 160 mg (22.8 μmol scale) of a Rink-Linker modified polystyrene solid phase by repeatedly conjugating an twenty fold excess of aminoacids each protected by temporary piperidine labile Fmoc- and permanent acid labile tert-Bu-, BOC- and Otert-Bu-groups depending on the side chain function. The substrate sequence AEEEIYGEFEAKKKK (SEQ ID NO: 1) was N-terminal additionally mounted with the spacer amino acids Aminocaprylic acid and Glycin. After cleavage of the N-terminal temporary protecting group the still attached and protected peptide was labeled with a 1.5 fold amount of LightCycler-Red 640-N-hydroxy succinimide ester (purchased by Roche Diagnostics GmbH) and triethylamine. After 3 hrs. the resin was washed with Dimethylformamide and Isopropanol until the eluates of the blue resin got colo-rless. […] The substrate was finally isolated by a preparative reverse phase HPLC purification. The purification yielded 12.2 mg RP-HPLC single peak pure blue material (lyophilisate). The identity was proven by MALDI mass spectroscopy [2720.0]. • Enzymes: Upstate Lck (p56^lck, active), Upstate Src (p60^c-src, partially purified) were purchased from UBI. • Time-resolved Fluorescence Assay: Reader: Perkin Elmer, Wallac Viktor 1420-040 multilabel counter; Liquid handling system: Beckman Coulter, Biomek 2000. ATP, Tween 20, HEPES were purchased from Roche Molecular Biochemicals, MgCl2 and MnCl2 were purchased from Merck Eurolab, TCEP was purchased from Pierce, 384 Well low volume fluorescence plates was purchased from Falcon. Assay Description:
(§4) At first the enzyme is pre-incubated for 15 min. at 15° C. in aqueous solution with corresponding amounts of inhibitors according to this invention. Then the phosphorylation reaction is started by adding a reaction mixture, containing ATP, Peptide and PT66, and subsequent shaking. The proceeding of this reaction is immediately monitored using time resolved fluorescence spectroscopy in a suitable well plate reader.
(§5) The IC50-values can be obtained from the reaction rates by using a non-linear curve fit (Excelfit).

[2] = target: T2, Lck (p56^lck, active) (Homo sapiens, UniProt P06239); assay: SRC-Inhibitor-Assay (time-resolved fluorescence), Lck enzyme; assay type: biochemical; conditions: ATP 5 μM, peptide 10 μM, enzyme 2.5 U/ml, pre-incubation 15 min at 15° C.
T2 construct: purchased Upstate (UBI)
Description: as §1, §2, §3, §4, §5

T2 sequence (P06239 whole entry, species assumed): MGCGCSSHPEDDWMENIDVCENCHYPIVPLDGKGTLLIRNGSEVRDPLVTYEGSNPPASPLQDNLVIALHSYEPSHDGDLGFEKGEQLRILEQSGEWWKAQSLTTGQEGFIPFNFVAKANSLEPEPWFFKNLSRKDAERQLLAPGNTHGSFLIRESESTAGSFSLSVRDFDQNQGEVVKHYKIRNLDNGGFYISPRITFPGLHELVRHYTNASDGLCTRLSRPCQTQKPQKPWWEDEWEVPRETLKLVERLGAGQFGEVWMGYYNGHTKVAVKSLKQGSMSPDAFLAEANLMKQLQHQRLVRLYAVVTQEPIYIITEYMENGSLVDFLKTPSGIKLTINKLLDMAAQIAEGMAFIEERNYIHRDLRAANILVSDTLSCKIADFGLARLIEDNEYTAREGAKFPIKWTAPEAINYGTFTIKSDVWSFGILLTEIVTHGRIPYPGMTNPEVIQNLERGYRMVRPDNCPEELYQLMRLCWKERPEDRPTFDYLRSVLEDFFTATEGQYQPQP
T1 sequence (P12931 whole entry, species assumed): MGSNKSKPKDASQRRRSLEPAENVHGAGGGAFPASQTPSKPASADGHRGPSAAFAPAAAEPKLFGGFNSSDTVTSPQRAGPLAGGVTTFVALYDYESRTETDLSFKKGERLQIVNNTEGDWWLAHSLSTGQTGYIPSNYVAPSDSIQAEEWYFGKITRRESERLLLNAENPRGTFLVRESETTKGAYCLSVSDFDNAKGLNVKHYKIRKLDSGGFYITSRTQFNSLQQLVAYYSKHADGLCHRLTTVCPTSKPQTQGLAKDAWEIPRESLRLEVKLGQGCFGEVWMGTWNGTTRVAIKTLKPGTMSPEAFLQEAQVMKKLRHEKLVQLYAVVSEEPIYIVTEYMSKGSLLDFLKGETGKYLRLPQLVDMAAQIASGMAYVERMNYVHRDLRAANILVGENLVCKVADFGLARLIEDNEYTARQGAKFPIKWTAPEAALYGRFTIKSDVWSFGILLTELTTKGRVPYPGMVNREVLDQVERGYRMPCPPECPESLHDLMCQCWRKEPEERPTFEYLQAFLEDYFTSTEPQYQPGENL

| pIC50 [1] | pIC50 [2] | Structure (SMILES) |
| --- | --- | --- |
| 7.97 | 7.22 | O=C(NC1CCNCC1)c1nc2nc(Nc3ccc(N4CCOCC4)cc3)ncc2cc1-c1ccccc1Br [Example 1, 6-(2-Bromo-phenyl)-2-(4-morpholin-4-yl-phenylamino)-pyrido[2,3-d]pyrimidine-7-carboxylic acid piperidin-4-ylamide] |
| 7.48 | 6.80 | CS(=O)(=O)c1cccc(Nc2ncc3cc(-c4ccccc4Br)c(C#N)nc3n2)c1 [Example 2, 6-(2-Bromo-phenyl)-2-(3-methanesulfonyl-phenylamino)-pyrido[2,3-d]pyrimidine-7-carbonitrile] |
| 8.52 | 7.64 | NC(=O)c1nc2nc(Nc3ccc(N4CCOCC4)cc3)ncc2cc1-c1ccccc1Br [Example 3-1, 6-(2-Bromo-phenyl)-2-(4-morpholin-4-yl-phenylamino)-pyrido[2,3-d]pyrimidine-7-carboxylic acid amide] |
| 8.36 | 7.90 | CCN(CC)CCOc1ccc(Nc2ncc3cc(-c4ccccc4Br)c(C(N)=O)nc3n2)cc1 [Example 3-2, 6-(2-Bromo-phenyl)-2-[4-(2-diethylamino-ethoxy)-phenylamino]-pyrido[2,3-d]pyrimidine-7-carboxylic acid amide] |
| 8.11 | – | CSc1cccc(Nc2ncc3cc(-c4ccccc4Br)c(C(N)=O)nc3n2)c1 [Example 3-3, 6-(2-Bromo-phenyl)-2-(3-methylsulfanyl-phenylamino)-pyrido[2,3-d]pyrimidine-7-carboxylic acid amide] |
| 8.16 | 7.13 | NC(=O)c1nc2nc(Nc3ccc(S(N)(=O)=O)cc3)ncc2cc1-c1ccccc1Br [Example 3-4, 6-(2-Bromo-phenyl)-2-(4-sulfamoyl-phenylamino)-pyrido[2,3-d]pyrimidine-7-carboxylic acid amide] |
| 7.45 | 6.96 | CNS(=O)(=O)Cc1cccc(Nc2ncc3cc(-c4ccccc4Br)c(C(N)=O)nc3n2)c1 [Example 3-5, 6-(2-Bromo-phenyl)-2-(3-methylsulfamoylmethyl-phenylamino)-pyrido[2,3-d]pyrimidine-7-carboxylic acid amide] |
| 7.65 | 6.84 | NC(=O)c1nc2nc(Nc3cccc(S(=O)(=O)CCO)c3)ncc2cc1-c1ccccc1Br [Example 3-6, 6-(2-Bromo-phenyl)-2-[3-(2-hydroxy-ethanesulfonyl)-phenylamino]-pyrido[2,3-d]pyrimidine-7-carboxylic acid amide] |
| 7.78 | 6.95 | CS(=O)(=O)c1cccc(Nc2ncc3cc(-c4ccccc4Br)c(C(N)=O)nc3n2)c1 [Example 3-7, 6-(2-Bromo-phenyl)-2-(3-methanesulfonyl-phenylamino)-pyrido[2,3-d]pyrimidine-7-carboxylic acid amide] |
| 8.77 | 7.49 | CSc1cccc(Nc2ncc3cc(-c4ccccc4Br)c(C(=O)NCCN(C)C)nc3n2)c1 [Example 3-8, 6-(2-Bromo-phenyl)-2-(3-methylsulfanyl-phenylamino)-pyrido[2,3-d]pyrimidine-7-carboxylic acid (2-dimethylamino-ethyl)-amide] |
| 9.05 | 7.92 | CN(C)CCNC(=O)c1nc2nc(Nc3ccc(N4CCOCC4)cc3)ncc2cc1-c1ccccc1Br [Example 3-9, 6-(2-Bromo-phenyl)-2-(4-morpholin-4-yl-phenylamino)-pyrido[2,3-d]pyrimidine-7-carboxylic acid (2-dimethylamino-ethyl)-amide] |
| 8.80 | 8.43 | CCN(CC)CCOc1ccc(Nc2ncc3cc(-c4ccccc4Br)c(C(=O)NCCN(C)C)nc3n2)cc1 [Example 3-10, 6-(2-Bromo-phenyl)-2-[4-(2-diethylamino-ethoxy)-phenylamino]-pyrido[2,3-d]pyrimidine-7-carboxylic acid (2-dimethylamino-ethyl)-amide] |
| 7.18 | 6.11 | O=C(NC1CCNCC1)c1nc2nc(Nc3ccc(F)cc3)ncc2cc1-c1ccccc1Br [Example 3-11, 6-(2-Bromo-phenyl)-2-(4-fluoro-phenylamino)-pyrido[2,3-d]pyrimidine-7-carboxylic acid piperidin-4-ylamide] |
| 7.47 | 6.46 | CN(C)CCNC(=O)c1nc2nc(Nc3ccc(F)cc3)ncc2cc1-c1ccccc1Br [Example 3-12, 6-(2-Bromo-phenyl)-2-(4-fluoro-phenylamino)-pyrido[2,3-d]pyrimidine-7-carboxylic acid (2-dimethylamino-ethyl)-amide] |
| 6.94 | 6.44 | COCCNC(=O)c1nc2nc(Nc3ccc(F)cc3)ncc2cc1-c1ccccc1Br [Example 3-13, 6-(2-Bromo-phenyl)-2-(4-fluoro-phenylamino)-pyrido[2,3-d]pyrimidine-7-carboxylic acid (2-methoxy-ethyl)-amide] |
| 7.66 | 6.63 | CN(C)CCCNC(=O)c1nc2nc(Nc3ccc(F)cc3)ncc2cc1-c1ccccc1Br [Example 3-14, 6-(2-Bromo-phenyl)-2-(4-fluoro-phenylamino)-pyrido[2,3-d]pyrimidine-7-carboxylic acid (3-dimethylamino-propyl)-amide] |
| 7.38 | 6.66 | CN(C)CC(C)(C)CNC(=O)c1nc2nc(Nc3ccc(F)cc3)ncc2cc1-c1ccccc1Br [Example 3-15, 6-(2-Bromo-phenyl)-2-(4-fluoro-phenylamino)-pyrido[2,3-d]pyrimidine-7-carboxylic acid (3-dimethylamino-2,2-dimethyl-propyl)-amide] |
| 7.09 | 6.72 | CC(=O)NCCNC(=O)c1nc2nc(Nc3ccc(F)cc3)ncc2cc1-c1ccccc1Br [Example 3-16, 6-(2-Bromo-phenyl)-2-(4-fluoro-phenylamino)-pyrido[2,3-d]pyrimidine-7-carboxylic acid (2-acetylamino-ethyl)-amide] |
| 8.21 | 7.40 | CNCCNC(=O)c1nc2nc(Nc3ccc(F)cc3)ncc2cc1-c1ccccc1Br [Example 3-17, 6-(2-Bromo-phenyl)-2-(4-fluoro-phenylamino)-pyrido[2,3-d]pyrimidine-7-carboxylic acid (2-methylamino-ethyl)-amide] |
| 7.61 | 7.16 | NC(=O)NNC(=O)c1nc2nc(Nc3ccc(F)cc3)ncc2cc1-c1ccccc1Br [Example 3-18, 1-[6-(2-Bromo-phenyl)-2-(4-fluoro-phenylamino)-pyrido[2,3-d]pyrimidine-7-carbonyl]semicarbazide] |
| 6.70 | 6.45 | CN(C)CCN(C)C(=O)c1nc2nc(Nc3ccc(F)cc3)ncc2cc1-c1ccccc1Br [Example 3-19, 6-(2-Bromo-phenyl)-2-(4-fluoro-phenylamino)-pyrido[2,3-d]pyrimidine-7-carboxylic acid (2-dimethylamino-ethyl)-methyl-amide] |
| 7.20 | 6.54 | NC(=O)CNC(=O)c1nc2nc(Nc3ccc(F)cc3)ncc2cc1-c1ccccc1Br [Example 3-20, 6-(2-Bromo-phenyl)-2-(4-fluoro-phenylamino)-pyrido[2,3-d]pyrimidine-7-carboxylic acid carbamoylmethyl-amide] |
| 7.02 | 6.20 | CN1CCC(NC(=O)c2nc3nc(Nc4ccc(F)cc4)ncc3cc2-c2ccccc2Br)CC1 [Example 3-21, 6-(2-Bromo-phenyl)-2-(4-fluoro-phenylamino)-pyrido[2,3-d]pyrimidine-7-carboxylic acid (1-methyl-piperidin-4-yl)-amide] |
| 6.80 | 6.18 | O=C(NCCN1CCOCC1)c1nc2nc(Nc3ccc(F)cc3)ncc2cc1-c1ccccc1Br [Example 3-22, 6-(2-Bromo-phenyl)-2-(4-fluoro-phenylamino)-pyrido[2,3-d]pyrimidine-7-carboxylic acid (2-morpholin-4-yl-ethyl)-amide] |
